Reference: ChEMBL document CHEMBL4715706, “Discovery of Benzotriazolo[4,3-d][1,4]diazepines as Orally Active Inhibitors of BET Bromodomains” (ACS Med Chem Lett, 2016)

What was measured:
[1] = molecular target: Nucleosome-remodeling factor subunit BPTF (Homo sapiens, UniProt Q12830); assay: Inhibition of BPTF (unknown origin) measured after 70 mins by TR-FRET assay
[2] = Inhibition of BET in human THP-1 cells assessed as suppression of LPS-induced IL-6 release measured after 16 hrs by chemiluminescence ELISA; assay type: cell-based; conditions: THP-1, 16 h
[3] = Clearance in rat at 1 mg/kg, iv; assay type: ADME, organism-based; conditions: in vivo
[4] = molecular target: Bromodomain-containing protein 3 (Homo sapiens, UniProt Q15059); assay: Inhibition of BRD3 BD2 (unknown origin) using biotinylated JQ1 analog as substrate measured after 20 mins by AlphaLISA assay
[5] = molecular target: T1, ATPase family AAA domain-containing protein 2 (Homo sapiens, UniProt Q6PL18); assay: Inhibition of His-tagged ATAD2 (unknown origin) using biotinylated acetylated peptide as substrate measured after 20 mins by AlphaLISA assay
T1 sequence (Q6PL18 whole entry): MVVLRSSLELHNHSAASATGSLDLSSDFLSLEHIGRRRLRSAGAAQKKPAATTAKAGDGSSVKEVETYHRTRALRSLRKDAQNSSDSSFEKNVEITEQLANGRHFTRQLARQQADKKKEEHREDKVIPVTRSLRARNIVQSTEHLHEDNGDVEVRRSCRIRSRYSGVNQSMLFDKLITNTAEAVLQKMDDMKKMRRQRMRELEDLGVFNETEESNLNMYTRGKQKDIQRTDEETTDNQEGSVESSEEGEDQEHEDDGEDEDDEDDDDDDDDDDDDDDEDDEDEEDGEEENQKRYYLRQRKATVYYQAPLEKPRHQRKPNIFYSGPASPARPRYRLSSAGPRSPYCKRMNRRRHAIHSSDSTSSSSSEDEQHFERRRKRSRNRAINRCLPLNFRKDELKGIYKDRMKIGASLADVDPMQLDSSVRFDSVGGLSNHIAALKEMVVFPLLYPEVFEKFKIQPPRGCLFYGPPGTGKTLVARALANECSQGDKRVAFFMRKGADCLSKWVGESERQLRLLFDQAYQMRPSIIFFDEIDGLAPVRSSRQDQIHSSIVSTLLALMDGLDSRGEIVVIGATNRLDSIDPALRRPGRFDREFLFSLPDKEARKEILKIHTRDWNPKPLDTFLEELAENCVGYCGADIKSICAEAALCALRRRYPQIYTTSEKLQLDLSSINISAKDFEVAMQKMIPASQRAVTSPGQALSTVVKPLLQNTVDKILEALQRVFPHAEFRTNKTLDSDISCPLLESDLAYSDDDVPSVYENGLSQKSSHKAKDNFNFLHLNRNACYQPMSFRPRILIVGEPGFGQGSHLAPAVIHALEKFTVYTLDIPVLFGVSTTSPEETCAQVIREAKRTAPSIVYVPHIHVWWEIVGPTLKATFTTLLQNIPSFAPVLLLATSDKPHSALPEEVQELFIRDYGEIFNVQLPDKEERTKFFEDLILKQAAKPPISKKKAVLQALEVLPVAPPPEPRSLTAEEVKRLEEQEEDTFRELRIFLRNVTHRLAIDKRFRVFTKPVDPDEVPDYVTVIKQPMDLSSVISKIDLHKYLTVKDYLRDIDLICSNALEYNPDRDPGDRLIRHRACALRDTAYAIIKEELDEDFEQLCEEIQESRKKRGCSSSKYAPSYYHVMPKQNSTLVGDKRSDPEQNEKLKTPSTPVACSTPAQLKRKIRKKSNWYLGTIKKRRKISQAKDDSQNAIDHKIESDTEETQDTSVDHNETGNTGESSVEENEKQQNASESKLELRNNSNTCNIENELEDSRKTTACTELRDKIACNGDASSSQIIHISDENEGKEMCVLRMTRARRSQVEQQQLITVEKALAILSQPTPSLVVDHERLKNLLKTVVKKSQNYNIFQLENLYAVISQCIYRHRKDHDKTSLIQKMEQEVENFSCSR

[6] = Intrinsic clearance in mouse liver microsomes
[7] = molecular target: Bromodomain-containing protein 4 (Homo sapiens, UniProt O60885); assay: Inhibition of BRD4 BD2 (unknown origin) using biotinylated JQ1 analog as substrate measured after 20 mins by AlphaLISA assay
[8] = Protein binding in human plasma; assay type: ADME, cell-free; conditions: read-out: PPB (converted)
[9] = molecular target: T2, Bromodomain-containing protein 9 (Homo sapiens, UniProt Q9H8M2); assay: Inhibition of His-tagged BRD9 (unknown origin) using biotinylated acetylated peptide as substrate measured after 20 mins by AlphaLISA assay
T2 sequence (Q9H8M2 whole entry): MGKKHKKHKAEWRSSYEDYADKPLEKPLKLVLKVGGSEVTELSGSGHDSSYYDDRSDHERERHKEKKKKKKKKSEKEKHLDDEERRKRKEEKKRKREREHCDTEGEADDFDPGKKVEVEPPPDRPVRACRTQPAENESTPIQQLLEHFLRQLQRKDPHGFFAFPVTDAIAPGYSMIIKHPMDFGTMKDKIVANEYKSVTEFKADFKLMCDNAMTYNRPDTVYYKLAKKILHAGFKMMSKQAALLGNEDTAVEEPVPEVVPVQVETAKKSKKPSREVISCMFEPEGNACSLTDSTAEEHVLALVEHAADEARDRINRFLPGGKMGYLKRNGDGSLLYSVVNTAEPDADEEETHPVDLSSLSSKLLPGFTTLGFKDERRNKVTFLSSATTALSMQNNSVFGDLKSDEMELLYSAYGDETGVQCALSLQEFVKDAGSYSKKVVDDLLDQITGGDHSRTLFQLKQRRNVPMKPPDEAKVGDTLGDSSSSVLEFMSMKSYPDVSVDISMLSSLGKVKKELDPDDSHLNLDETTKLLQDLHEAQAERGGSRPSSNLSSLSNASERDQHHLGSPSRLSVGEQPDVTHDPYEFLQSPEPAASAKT

[10] = Volume of distribution at steady state in rat at 1 mg/kg, iv; assay type: ADME, organism-based; conditions: in vivo, read-out: Vdss
[11] = molecular target: CREB-binding protein (Homo sapiens, UniProt Q92793); assay: Inhibition of His-tagged CBP (unknown origin) using biotinylated acetylated peptide as substrate measured after 20 mins by AlphaLISA assay
CREB-binding protein, sequence (Q92793 whole entry): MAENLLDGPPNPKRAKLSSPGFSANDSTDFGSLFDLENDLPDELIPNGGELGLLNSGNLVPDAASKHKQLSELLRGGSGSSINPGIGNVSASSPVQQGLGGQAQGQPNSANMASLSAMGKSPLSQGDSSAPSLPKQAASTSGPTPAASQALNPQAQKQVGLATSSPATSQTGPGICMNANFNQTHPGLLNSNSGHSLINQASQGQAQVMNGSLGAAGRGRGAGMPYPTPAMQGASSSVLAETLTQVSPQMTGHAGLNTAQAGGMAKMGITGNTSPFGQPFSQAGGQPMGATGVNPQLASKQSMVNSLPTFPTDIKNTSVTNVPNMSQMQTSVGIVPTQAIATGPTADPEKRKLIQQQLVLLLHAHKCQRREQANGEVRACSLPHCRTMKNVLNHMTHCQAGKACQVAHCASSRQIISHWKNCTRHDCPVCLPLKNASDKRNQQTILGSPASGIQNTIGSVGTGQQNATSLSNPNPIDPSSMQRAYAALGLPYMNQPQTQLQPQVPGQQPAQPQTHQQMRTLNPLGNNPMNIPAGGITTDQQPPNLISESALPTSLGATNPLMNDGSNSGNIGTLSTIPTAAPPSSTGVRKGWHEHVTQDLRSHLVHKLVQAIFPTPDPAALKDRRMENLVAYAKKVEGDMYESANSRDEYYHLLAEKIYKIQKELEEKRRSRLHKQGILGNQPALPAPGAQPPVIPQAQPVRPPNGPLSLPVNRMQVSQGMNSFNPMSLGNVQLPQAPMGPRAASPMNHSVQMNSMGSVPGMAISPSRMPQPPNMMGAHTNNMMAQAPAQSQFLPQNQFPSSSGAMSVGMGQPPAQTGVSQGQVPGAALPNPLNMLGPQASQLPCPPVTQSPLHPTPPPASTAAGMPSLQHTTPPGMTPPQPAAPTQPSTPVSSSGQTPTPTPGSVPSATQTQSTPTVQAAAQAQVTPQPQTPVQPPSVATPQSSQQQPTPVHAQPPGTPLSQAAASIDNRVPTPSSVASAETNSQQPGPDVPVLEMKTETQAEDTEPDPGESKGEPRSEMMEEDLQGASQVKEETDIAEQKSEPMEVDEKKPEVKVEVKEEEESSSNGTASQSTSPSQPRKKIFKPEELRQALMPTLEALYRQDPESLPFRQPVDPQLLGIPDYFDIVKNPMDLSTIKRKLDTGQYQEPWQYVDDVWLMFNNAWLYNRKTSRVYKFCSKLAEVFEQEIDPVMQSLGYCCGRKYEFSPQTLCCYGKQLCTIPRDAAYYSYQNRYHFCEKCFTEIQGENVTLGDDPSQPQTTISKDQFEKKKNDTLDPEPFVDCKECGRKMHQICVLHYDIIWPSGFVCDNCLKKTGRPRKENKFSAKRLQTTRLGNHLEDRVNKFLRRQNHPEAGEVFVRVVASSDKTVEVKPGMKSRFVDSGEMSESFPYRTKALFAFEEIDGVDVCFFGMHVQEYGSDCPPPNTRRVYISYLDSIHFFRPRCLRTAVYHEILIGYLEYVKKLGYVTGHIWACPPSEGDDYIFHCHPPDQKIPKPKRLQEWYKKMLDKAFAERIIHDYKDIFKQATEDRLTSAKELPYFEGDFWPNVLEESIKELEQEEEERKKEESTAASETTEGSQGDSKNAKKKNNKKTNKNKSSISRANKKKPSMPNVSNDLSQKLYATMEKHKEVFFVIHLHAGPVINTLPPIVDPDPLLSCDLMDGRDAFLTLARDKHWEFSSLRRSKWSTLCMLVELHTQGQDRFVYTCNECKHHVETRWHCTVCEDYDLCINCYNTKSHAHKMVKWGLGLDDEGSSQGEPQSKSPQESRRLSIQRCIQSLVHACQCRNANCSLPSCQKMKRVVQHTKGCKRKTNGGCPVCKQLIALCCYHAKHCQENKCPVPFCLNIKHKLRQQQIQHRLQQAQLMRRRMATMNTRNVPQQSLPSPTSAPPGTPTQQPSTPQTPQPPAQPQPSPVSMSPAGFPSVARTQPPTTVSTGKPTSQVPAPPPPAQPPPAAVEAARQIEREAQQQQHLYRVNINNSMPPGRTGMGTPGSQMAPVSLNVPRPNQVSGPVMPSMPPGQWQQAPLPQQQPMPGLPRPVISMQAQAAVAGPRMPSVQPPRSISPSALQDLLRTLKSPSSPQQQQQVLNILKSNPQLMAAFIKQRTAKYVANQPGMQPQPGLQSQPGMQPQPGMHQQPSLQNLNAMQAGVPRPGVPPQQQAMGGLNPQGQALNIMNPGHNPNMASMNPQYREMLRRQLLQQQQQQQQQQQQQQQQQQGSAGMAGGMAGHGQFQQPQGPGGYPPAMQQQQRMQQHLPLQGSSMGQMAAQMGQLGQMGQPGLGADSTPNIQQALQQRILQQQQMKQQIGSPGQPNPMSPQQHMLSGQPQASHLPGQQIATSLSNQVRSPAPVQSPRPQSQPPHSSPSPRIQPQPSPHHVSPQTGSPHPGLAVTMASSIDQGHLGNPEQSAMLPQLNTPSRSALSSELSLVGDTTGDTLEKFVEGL

Bromodomain-containing protein 3, sequence (Q15059 whole entry, the tested form may be a part): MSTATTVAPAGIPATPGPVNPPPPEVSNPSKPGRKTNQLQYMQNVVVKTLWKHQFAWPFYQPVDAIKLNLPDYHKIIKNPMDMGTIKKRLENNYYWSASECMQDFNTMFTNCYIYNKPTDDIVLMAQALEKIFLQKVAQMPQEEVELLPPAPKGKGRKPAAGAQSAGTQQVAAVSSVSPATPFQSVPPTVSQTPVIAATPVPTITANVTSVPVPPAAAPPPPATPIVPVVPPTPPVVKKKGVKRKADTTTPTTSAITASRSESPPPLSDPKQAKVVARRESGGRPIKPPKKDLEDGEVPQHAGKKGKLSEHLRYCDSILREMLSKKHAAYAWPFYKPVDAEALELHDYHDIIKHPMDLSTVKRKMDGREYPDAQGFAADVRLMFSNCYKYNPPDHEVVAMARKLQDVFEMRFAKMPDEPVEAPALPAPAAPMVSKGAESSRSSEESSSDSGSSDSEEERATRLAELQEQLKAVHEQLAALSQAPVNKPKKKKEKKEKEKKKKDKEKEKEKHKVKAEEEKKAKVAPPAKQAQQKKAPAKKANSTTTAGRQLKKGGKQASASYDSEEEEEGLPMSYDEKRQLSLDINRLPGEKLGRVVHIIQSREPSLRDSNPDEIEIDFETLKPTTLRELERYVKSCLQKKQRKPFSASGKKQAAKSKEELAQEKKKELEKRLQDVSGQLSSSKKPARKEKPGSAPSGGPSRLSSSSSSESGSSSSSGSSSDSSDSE

IC50 [1]: > 15000 nM | EC50 [2]: 13 nM | clearance [3]: 63.3 mL/min/kg | IC50 [4]: 3 nM | IC50 [5]: > 15000 nM | microsomal CLint [6]: 16 µL/min/mg | IC50 [7]: 3 nM | fraction unbound [8]: 0.02 | IC50 [9]: > 15000 nM | Vd [10]: 2.2 L/kg | IC50 [11]: 2200 nM
SMILES: Cc1nnc2n1-c1ccc(-c3ccc(N)nc3)cc1N(c1ccc(Cl)cc1)C[C@H]2C
